One series in a line: Solubility test. The following applies: for solubility: aqueous buffer, thermodynamic from solid. The series is classed as physicochemical. The procedure: The solubility was measured for Examples 7, 10, 20, 23, 24, and 30 to 34, Comparative Example 1, and Comparative Example 2. The test compound was added to 10 mmol/L glycine buffer (pH 2.0) and 10 mmol/L citrate buffer (pH 3.0), and the mixture was stored in a thermostatic chamber at 5° C. After standing overnight, the mixture was filtered through a membrane filter, and the concentration of the filtrate was measured by HPLC.

For another series, the system named is Kuramochi cells. The series is described as follows: Cell proliferation inhibition experiment using Kuramochi cells. The series is classed as cell-based. The following applies: 144 h, cultured for 6 days, CellTiter-Glo. The procedure: Kuramochi cells (derived from ovarian cancer) were obtained from JCRB (Japanese Collection of Research Bioresources) cell bank. Kuramochi cells were cultured in RPMI-1640 medium containing 10% fetal bovine serum and 1% penicillin/streptomycin under conditions of 37° C. and 5% CO2.
500 cells per well were seeded in a 384-well plate. One day after seeding, Examples 3, 7, 9, 10, 11, 20, 23 to 25, and 30 to 34 were added so that the final concentration of DMSO was 0.1%, and the cells were cultured for 6 days. After the culture was completed, the cell viability was measured using CellTiter-Glo Luminescent Cell Viability Assay (Promega, G7570).

A further series addresses recombinant p300 (Homo sapiens (Human), UniProt Q09472). The series is described as follows: HAT activity inhibition experiment (SensoLyte HAT(p300) Assay Kit). The series is classed as biochemical. The following applies: recombinant p300, histone H3 peptide, acetyl CoA. As for the experimental part: The HAT activity inhibitory ability of HAT inhibitors was evaluated using SensoLyte HAT(p300) Assay Kit (ANASPEC, AS-72172). Specifically, 7.5 μL of the compound of Examples […] diluted with assay buffer was added to 7.5 μL of recombinant p300 solution diluted 10 times with assay buffer, and the mixture was incubated at room temperature for 10 minutes. 7.5 μL of acetyl CoA solution diluted 10 times with assay buffer and 15 μL of histone H3 peptide diluted 10 times with assay buffer were added thereto, and the mixture was incubated at 37° C. for 30 minutes. 37.5 μL of Stop Solution was added to stop the reaction. 75 μL of p300 Developer solution diluted 50 times with assay buffer was added, and the mixture was incubated at room temperature for 30 minutes under light-shielded conditions. The fluorescence at 513 nm when irradiated with 389 nm excitation light was measured using a multiplate reader.

A short description of series [1]: Membrane permeability test (PAMPA). The series is classed as in vitro ADME. As for the experimental part:
The membrane permeability of the test compound was tested by parallel artificial membrane permeability assay (PAMPA) as follows. 200 μL of System solution (pION Inc.) containing the test compound and 4 μL of GIT Lipid-0 (pION Inc.) were added to the donor plate. 200 μL of Acceptor Sink Buffer (pION Inc.) was added to the acceptor plate. Both plates were overlapped and incubated at 37° C. for 4 hours, after which the UV of the solutions on the acceptor side and donor side was measured using a UV plate reader (190-500 nm). Compounds with poor UV absorption were measured using LC-MS. The permeability coefficient Pe (10^−6 cm/sec) of the drug was calculated using the following equation.
(In PAMPA a lipid-coated filter parts donor from acceptor wells.)

The next series relates to G-401 cells. The series can be described thus: Cell proliferation inhibition experiment using G-401 cells. The series is classed as cell-based. Particulars: Homo sapiens, 72 h, cultured for 3 days, CellTiter-Glo. The procedure: G-401 cells (derived from malignant rhabdoid tumor) were obtained from the American Type Culture Collection (ATCC). G-401 cells were cultured in McCoy's 5A medium containing 10% fetal bovine serum and 1% penicillin/streptomycin under conditions of 37° C. and 5% CO2.
500 cells per well were seeded in a 384-well plate. One day after seeding, Examples 1 to 35 were added so that the final concentration of DMSO was 0.1%, and the cells were cultured for 3 days. After the culture was completed, the cell viability was measured using CellTiter-Glo Luminescent Cell Viability Assay (Promega, G7570).

A further series has as its system G-401 xenograft. The series can be described thus: Drug efficacy evaluation by intravenous administration using G-401 xenograft mice model. The series is classed as in vivo. As for the experimental part:
G-401 cells (ATCC) were intradermally transplanted into 4-7-week-old BALB/cAnNCrj-nu/nu mice (CAnN.Cg-Foxn1/CrlCrlj, Jackson Laboratory Japan) at 5×10^5 cells/mouse. After confirming the engraftment of G-401 cells 10-40 days after transplantation, the test compound suspended in a solvent such as 10 mmol/L glycine buffer solution (pH 2.0) was administered via the tail vein at least once a week at a dose of 0.015-20 mg/kg. The tumor volume was measured over time from the start of administration, and the effect of tumor volume reduction by administration of the test compound was evaluated. The tumor volume can be calculated from the following equation using the minor axis and major axis of the tumor measured with an electronic caliper (Mitutoyo).
A control administration group administered with only a solvent such as 10 mmol/L glycine buffer solution (pH 2.0) and a test compound administration group were compared, and the antitumor effect was evaluated by calculating T/C from the following equation.

Where [2] appears, read: 10 mmol/L citrate buffer (pH 3.0), 5° C., overnight, read-out: Solubility in pH 3.0 buffer.
The mark [3] stands for this setting: 10 mmol/L glycine buffer (pH 2.0), 5° C., overnight, read-out: Solubility in pH 2.0 buffer.
Setting [4] is: pH 5.0, 37° C., read-out: pH 5.0 Pe.
Where [5] appears, read: pH 7.4, 37° C., read-out: pH 7.4 Pe.

pIC50: −log10 of the molar value. ≈ marks a conversion by molar mass, not a printed value. Read-outs that look alike come from different tables or passages of the source.

recombinant p300, sequence (Q09472 whole entry): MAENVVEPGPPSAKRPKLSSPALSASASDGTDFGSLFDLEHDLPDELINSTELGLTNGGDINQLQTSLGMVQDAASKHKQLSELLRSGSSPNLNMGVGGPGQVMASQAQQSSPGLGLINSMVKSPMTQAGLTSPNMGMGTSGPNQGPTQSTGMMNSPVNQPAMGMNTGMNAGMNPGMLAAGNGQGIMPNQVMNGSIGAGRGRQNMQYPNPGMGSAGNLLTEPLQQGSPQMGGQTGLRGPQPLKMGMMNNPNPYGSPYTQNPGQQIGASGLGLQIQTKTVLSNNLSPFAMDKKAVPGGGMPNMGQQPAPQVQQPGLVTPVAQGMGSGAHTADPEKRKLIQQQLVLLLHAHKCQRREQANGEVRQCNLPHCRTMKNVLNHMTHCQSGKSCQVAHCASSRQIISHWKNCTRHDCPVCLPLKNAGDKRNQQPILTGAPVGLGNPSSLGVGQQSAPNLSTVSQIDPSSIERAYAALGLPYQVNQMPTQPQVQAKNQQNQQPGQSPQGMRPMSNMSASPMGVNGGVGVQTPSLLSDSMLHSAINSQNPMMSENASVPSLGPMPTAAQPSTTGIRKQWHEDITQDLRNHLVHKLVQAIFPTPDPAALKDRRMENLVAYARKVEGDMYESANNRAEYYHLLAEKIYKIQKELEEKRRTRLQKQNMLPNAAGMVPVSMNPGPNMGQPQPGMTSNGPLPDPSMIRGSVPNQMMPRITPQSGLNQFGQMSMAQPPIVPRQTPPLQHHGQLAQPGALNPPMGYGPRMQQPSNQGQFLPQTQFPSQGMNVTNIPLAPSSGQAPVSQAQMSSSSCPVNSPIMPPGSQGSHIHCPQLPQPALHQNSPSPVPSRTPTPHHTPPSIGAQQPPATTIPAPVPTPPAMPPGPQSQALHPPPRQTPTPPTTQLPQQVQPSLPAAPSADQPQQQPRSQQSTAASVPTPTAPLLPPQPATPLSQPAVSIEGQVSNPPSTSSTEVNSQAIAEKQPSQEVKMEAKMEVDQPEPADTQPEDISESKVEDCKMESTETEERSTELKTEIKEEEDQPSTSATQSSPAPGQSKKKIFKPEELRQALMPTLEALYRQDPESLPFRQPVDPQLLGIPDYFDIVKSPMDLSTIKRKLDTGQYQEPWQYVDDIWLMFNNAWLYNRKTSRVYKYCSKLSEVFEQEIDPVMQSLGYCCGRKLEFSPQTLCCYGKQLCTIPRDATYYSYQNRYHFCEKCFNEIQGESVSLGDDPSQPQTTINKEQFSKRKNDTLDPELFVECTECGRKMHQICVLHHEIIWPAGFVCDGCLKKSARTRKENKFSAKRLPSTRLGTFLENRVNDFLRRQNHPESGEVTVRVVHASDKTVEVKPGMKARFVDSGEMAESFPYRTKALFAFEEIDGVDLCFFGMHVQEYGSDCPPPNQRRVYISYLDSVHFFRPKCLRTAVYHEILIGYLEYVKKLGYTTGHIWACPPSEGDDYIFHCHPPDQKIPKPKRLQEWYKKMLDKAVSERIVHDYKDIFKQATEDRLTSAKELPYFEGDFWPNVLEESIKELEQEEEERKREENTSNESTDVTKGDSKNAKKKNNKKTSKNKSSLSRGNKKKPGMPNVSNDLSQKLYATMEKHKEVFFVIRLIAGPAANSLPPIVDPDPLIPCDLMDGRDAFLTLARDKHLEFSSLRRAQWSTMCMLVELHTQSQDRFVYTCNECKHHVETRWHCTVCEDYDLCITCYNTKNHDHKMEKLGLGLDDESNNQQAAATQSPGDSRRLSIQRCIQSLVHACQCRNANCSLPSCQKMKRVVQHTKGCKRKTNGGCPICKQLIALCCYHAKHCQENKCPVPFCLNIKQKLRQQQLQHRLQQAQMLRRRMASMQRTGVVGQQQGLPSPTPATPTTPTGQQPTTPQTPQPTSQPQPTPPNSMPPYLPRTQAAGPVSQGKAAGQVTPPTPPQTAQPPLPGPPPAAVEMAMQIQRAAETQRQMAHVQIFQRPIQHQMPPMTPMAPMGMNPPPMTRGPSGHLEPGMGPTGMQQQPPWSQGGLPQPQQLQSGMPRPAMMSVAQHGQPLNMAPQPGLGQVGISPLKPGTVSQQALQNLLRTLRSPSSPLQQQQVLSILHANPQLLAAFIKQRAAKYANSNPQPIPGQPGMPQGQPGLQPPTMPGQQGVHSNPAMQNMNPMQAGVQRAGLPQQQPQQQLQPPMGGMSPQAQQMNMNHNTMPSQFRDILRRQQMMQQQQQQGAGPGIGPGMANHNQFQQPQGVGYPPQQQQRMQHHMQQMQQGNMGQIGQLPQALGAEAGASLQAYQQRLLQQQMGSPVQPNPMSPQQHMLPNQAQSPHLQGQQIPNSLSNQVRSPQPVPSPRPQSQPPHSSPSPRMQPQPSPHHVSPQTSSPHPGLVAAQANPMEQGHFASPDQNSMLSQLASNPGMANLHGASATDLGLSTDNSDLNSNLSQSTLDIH

As to `CCn1cc(-c2ccc3c(c2)[C@H](F)C[C@]32NC(=O)N(CC(=O)N(Cc3ccc(F)cn3)C3(C(F)(F)F)CN(C)C3)C2=O)cn1` [Example 32, 2-[(1′S,3′R)-5′-(1-ethyl-1H-pyrazol-4-yl)-3′-fluoro-2,5-dioxo-2′,3′-dihydrospiro[imidazolidine-4,1′-inden]-1-yl]-N-[(5-fluoropyridin-2-yl)methyl]-N-[1-methyl-3-(trifluoromethyl)azetidin-3-yl]acetamide], the solubility in “Solubility test” (setting [2]) and in “Solubility test” (setting [3]) was > 10000 µg/mL in each case. The negative-log IC50 (pIC50) with Kuramochi cells was 7.28; at recombinant p300 it was 9.40; in the series with G-401 cells, 8.30. The Papp at 4 h in series [1] (setting [4]) came to 15.4 ×10⁻⁶ cm/s; in series [1] (setting [5]), 26.6 ×10⁻⁶ cm/s.

For `CC(C)n1cc(-c2ccc3c(c2)[C@H](F)C[C@]32NC(=O)N(CC(=O)N(Cc3ccc(F)cn3)C3(C(F)(F)F)CN(C)C3)C2=O)cn1` [Example 33, 2-{(1′S,3′R)-3′-fluoro-2,5-dioxo-5′-[1-(propan-2-yl)-1H-pyrazol-4-yl]-2′,3′-dihydrospiro[imidazolidine-4,1′-inden]-1-yl}-N-[(5-fluoropyridin-2-yl)methyl]-N-[1-methyl-3-(trifluoromethyl)azetidin-3-yl]acetamide], the solubility in “Solubility test” (setting [2]) is 8600 µg/mL (≈ 13.6 mM); in the series “Solubility test” (setting [3]), > 10000 µg/mL. Besides, the figures for the pIC50 in the series on Kuramochi cells, at recombinant p300 and in the series with G-401 cells were 7.62, 9.70 and 8.40, respectively. The results for the Papp at 4 h in series [1] (setting [4]) and in series [1] (setting [5]) were 22.6 ×10⁻⁶ cm/s and 27 ×10⁻⁶ cm/s, respectively.

Consider `CNC(=O)Cn1cc(-c2ccc3c(c2)[C@H](F)C[C@]32NC(=O)N(CC(=O)N(Cc3ccc(F)cc3)[C@@H](C)C(F)(F)F)C2=O)cn1` [Comparative Example 1, reference compound], for which, in “Solubility test” (10 mmol/L citrate buffer (pH 3.0), 5° C., overnight), the “Solubility in pH 3.0 buffer” value is given as 0.005 mg/mL. For the same compound, in “Solubility test” (10 mmol/L glycine buffer (pH 2.0), 5° C., overnight), the “Solubility in pH 2.0 buffer” value turned out to be 0.002 mg/mL. For the same compound, the solubility in the series “Solubility test” (setting [2]) was 5 µg/mL (≈ 0.00808 mM); in the series “Solubility test” (setting [3]), 2 µg/mL (≈ 0.00323 mM). The “solubility (in words)” value in “Solubility test” (pH 2.0 and pH 3.0 buffers) was “extremely low solubility”. The “antitumor effect (in words)” value with G-401 xenograft (G-401 xenograft model, intravenous administration) is recorded as “no antitumor effect”. The T/C with G-401 xenograft (intravenous (tail vein), 0.015 mg/kg, 14 days) is −1.1%. The values for the Papp at 4 h in series [1] (setting [4]) and in series [1] (setting [5]) were 21.3 ×10⁻⁶ cm/s and 20.8 ×10⁻⁶ cm/s, respectively.

In the case of `CC(C)n1cc(-c2ccc3c(c2)[C@H](F)C[C@]32NC(=O)N(CC(=O)N(Cc3ccc(F)cc3)C3(C(F)(F)F)CN(C)C3)C2=O)cn1` [Example 31, 2-{(1′S,3′R)-3′-fluoro-2,5-dioxo-5′-[1-(propan-2-yl)-1H-pyrazol-4-yl]-2′,3′-dihydrospiro[imidazolidine-4,1′-inden]-1-yl}-N-[(4-fluorophenyl)methyl]-N-[1-methyl-3-(trifluoromethyl)azetidin-3-yl]acetamide], the solubility in the series “Solubility test” (setting [2]) worked out at 1400 µg/mL (≈ 2.22 mM); in the series “Solubility test” (setting [3]) it was 7100 µg/mL (≈ 11.3 mM). For the same compound, the negative logarithm of the IC50 (pIC50) in the series on Kuramochi cells was 8.10; at recombinant p300 it was 9.00; with G-401 cells, 9.00. Moreover, the Papp at 4 h was 31.3 ×10⁻⁶ cm/s in series [1] (setting [4]) and 34.9 ×10⁻⁶ cm/s in series [1] (setting [5]).

Take `CCn1cc(-c2ccc3c(c2)[C@H](F)C[C@]32NC(=O)N(CC(=O)N(Cc3ccc(F)cc3)C3(C(F)(F)F)CN(C)C3)C2=O)cn1` [Example 30, 2-[(1′S,3′R)-5′-(1-ethyl-1H-pyrazol-4-yl)-3′-fluoro-2,5-dioxo-2′,3′-dihydrospiro[imidazolidine-4,1′-inden]-1-yl]-N-[(4-fluorophenyl)methyl]-N-[1-methyl-3-(trifluoromethyl)azetidin-3-yl]acetamide]: the solubility in the series “Solubility test” (setting [2]) was 1700 µg/mL (≈ 2.76 mM); in the series “Solubility test” (setting [3]), 8800 µg/mL (≈ 14.3 mM). In addition, the negative logarithm of the IC50 (pIC50) was 8.00 in the series with Kuramochi cells, 8.82 on recombinant p300 and 8.70 with G-401 cells. Moreover, the values for the Papp at 4 h in series [1] (setting [4]) and in series [1] (setting [5]) were 30.6 ×10⁻⁶ cm/s and 35 ×10⁻⁶ cm/s, respectively.

Turning to `CN1CC(N(Cc2ccc(F)cn2)C(=O)CN2C(=O)N[C@]3(C[C@@H](F)c4cc(-c5cnn(C6CCC6)c5)ccc43)C2=O)(C(F)(F)F)C1` [Example 34, 2-[(1′S,3′R)-5′-(1-cyclobutyl-1H-pyrazol-4-yl)-3′-fluoro-2,5-dioxo-2′,3′-dihydrospiro[imidazolidine-4,1′-inden]-1-yl]-N-[(5-fluoropyridin-2-yl)methyl]-N-[1-methyl-3-(trifluoromethyl)azetidin-3-yl]acetamide], the solubility was 8100 µg/mL (≈ 12.6 mM) in the series “Solubility test” (setting [2]) and > 10000 µg/mL in “Solubility test” (setting [3]). For the same compound, the pIC50 in the series with Kuramochi cells was 7.35; at recombinant p300 it was 9.70; in the series on G-401 cells it was 8.30. Moreover, the Papp at 4 h in series [1] (setting [4]) was found to be 24.4 ×10⁻⁶ cm/s; in series [1] (setting [5]), 34.9 ×10⁻⁶ cm/s.

Usually solubility stands for how much of the substance goes into solution per volume. Usually pIC50 stands for the IC50 on a negative log10 scale, so that one unit is a factor of ten.

The values above are taken from patent publication US20250257055A1, “TERTIARY AMIDE DERIVATIVES SUBSTITUTED WITH 4-MEMBERED RING STRUCTURE” (Sumitomo Pharma Co., Ltd., priority 2024, published 2025).
